In ChEMBL document CHEMBL4311992, “Discovery of 3-(((9H-purin-6-yl)amino)methyl)-4,6-dimethylpyridin-2(1H)-one derivatives as novel tubulin polymerization inhibitors for treatment of cancer” (Eur J Med Chem, 2019):
The source made the active and inactive calls. The rule behind the calls is not given here.

Experiments:
[1] = Toxicity in nude BALB/c mouse assessed as change in cholesterol level at 40 to 80 mg/kg, po once daily for 4 weeks measured post-last dose; assay type: organism-based; settings: in vivo, 672 h
[2] = target: Serine/threonine-protein kinase DCLK2 (Homo sapiens) (UniProt Q8N568); assay: Inhibition of recombinant human DCAMKL2 (376 to end residues) assessed as residual activity at 10 uM using KKLNRTLSFAEPG as substrate measured after 40 mins in presence of [gamma33P]ATP by scintillation counting method
Sequence of Serine/threonine-protein kinase DCLK2 (Homo sapiens) (Q8N568 whole entry): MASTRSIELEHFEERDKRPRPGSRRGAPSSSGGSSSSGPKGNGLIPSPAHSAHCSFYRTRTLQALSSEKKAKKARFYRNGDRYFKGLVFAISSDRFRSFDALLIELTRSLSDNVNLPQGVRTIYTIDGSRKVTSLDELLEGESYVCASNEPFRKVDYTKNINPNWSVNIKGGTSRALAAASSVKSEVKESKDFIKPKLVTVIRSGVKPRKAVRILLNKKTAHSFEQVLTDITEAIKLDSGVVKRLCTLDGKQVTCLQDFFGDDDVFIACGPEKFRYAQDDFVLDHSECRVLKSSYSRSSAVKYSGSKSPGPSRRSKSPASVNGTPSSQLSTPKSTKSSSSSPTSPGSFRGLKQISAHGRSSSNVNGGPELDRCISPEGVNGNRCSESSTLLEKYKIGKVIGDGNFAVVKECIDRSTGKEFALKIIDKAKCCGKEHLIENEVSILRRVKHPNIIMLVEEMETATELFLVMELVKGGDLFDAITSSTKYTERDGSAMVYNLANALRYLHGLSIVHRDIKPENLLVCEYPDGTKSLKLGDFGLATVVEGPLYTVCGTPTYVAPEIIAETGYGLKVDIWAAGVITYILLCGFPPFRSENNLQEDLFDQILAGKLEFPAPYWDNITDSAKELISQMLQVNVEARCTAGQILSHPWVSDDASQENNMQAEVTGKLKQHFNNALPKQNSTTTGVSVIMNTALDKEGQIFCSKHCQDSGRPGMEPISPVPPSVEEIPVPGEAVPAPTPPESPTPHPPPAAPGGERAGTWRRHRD

[3] = test system: A549; assay: Antiproliferative activity against human A549 cells assessed as reduction in cell viability after 72 hrs by MTT assay; assay type: functional, cell-based; settings: A549, 72 h
[4] = target: Leucine-rich repeat serine/threonine-protein kinase 2 (Homo sapiens) (UniProt Q5S007); assay: Inhibition of recombinant human LRRK2 (970 to end residues) assessed as residual activity at 10 uM using RLGRDKYKTLRQIRQ as substrate measured after 40 mins in presence of [gamma33P]ATP by scintillation counting method
[5] = target: DNA-dependent protein kinase catalytic subunit (Homo sapiens) (UniProt P78527); assay: Inhibition of recombinant full-length human DNA-PK assessed as residual activity at 10 uM using GST-cMyc-p53 as substrate measured after 40 mins by fluorescence assay
[6] = target: G protein-coupled receptor kinase 6 (Homo sapiens) (UniProt P43250); assay: Inhibition of recombinant full-length human GRK6 assessed as residual activity at 10 uM using casein as substrate measured after 40 mins in presence of [gamma33P]ATP by scintillation counting method
[7] = target: 5'-AMP-activated protein kinase catalytic subunit alpha-1 (Homo sapiens) (UniProt Q13131); assay: Inhibition of recombinant full-length human AMPKalpha1 assessed as residual activity at 10 uM using AMARAASAAALARRR as substrate measured after 40 mins in presence of [gamma33P]ATP by scintillation counting method
Sequence of 5'-AMP-activated protein kinase catalytic subunit alpha-1 (Homo sapiens) (Q13131 whole entry, looked up): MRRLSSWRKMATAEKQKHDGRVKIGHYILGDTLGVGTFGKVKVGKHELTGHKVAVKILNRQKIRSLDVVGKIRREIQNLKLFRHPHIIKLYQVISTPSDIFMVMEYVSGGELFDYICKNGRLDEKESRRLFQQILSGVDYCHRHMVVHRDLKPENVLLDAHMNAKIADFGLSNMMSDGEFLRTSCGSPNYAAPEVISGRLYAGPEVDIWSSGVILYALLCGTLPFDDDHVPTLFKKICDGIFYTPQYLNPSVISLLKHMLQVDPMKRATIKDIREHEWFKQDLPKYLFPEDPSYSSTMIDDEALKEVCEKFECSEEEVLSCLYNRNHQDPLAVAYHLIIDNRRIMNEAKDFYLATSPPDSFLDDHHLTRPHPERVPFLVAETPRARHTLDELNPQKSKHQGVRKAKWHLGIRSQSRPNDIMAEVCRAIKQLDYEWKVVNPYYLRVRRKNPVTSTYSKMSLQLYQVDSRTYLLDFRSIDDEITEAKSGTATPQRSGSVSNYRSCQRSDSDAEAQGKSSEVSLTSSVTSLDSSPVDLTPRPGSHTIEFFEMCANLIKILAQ

[8] = target: Tubulin (Homo sapiens) (UniProt P68371+Q9H4B7+P0DPH7+P68366+Q13509+Q71U36+P04350+Q3ZCM7+P07437+P68363+Q9BQE3+Q6PEY2+Q13885+Q9BVA1+Q9BUF5); assay: Disruption of microtubule network in human SW620 cells assessed as microtubule disorganization at 50 nM for 18 hrs by FITC/DAPI staining-based confocal microscopic analysis; assay type: cell-based
[9] = target: Fibroblast growth factor receptor 4 (Homo sapiens) (UniProt P22455); assay: Inhibition of recombinant human FGFR4 (442 to 755 residues) assessed as residual activity at 10 uM using poly(Glu, Tyr) 4:1 as substrate measured after 40 mins in presence of [gamma33P]ATP by scintillation counting method
[10] = target: Mitogen-activated protein kinase 8 (Homo sapiens) (UniProt P45983); assay: Inhibition of recombinant full-length human JNK1alpha1 assessed as residual activity at 10 uM using ATF2 as substrate measured after 40 mins in presence of [gamma33P]ATP by scintillation counting method
Sequence of Mitogen-activated protein kinase 8 (Homo sapiens) (P45983 whole entry): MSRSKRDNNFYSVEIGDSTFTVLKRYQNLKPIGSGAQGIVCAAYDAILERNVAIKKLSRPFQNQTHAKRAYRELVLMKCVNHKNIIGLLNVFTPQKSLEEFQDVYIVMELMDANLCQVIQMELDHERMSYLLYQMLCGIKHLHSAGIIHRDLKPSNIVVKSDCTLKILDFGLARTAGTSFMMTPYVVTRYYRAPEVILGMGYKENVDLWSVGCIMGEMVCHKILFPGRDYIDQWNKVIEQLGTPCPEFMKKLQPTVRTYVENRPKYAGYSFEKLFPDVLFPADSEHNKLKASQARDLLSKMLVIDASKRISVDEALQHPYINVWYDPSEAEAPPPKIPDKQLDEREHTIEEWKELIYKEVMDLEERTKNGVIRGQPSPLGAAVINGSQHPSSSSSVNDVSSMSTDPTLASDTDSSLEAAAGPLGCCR

[11] = test system: HCT-116; assay: Antitumor activity against human HCT116 cells xenografted in nude BALB/c mouse assessed as tumor growth inhibition at 40 mg/kg, po administered once daily for 4 weeks measured post-last dose relative to control; assay type: functional; settings: HCT-116, po, 672 h, read-out: TGI
[12] = target: TRAF2 and NCK-interacting protein kinase (Homo sapiens) (UniProt Q9UKE5); assay: Inhibition of human TNIK (1 to 367 residues) using RLGRDKYKTLRQIRQ as substrate measured after 40 mins in presence of [gamma33P]ATP by scintillation counting method; parameters: scale not given: the % may be the effect or the level left
[13] = target: Insulin receptor (Homo sapiens) (UniProt P06213); assay: Inhibition of recombinant human IR (1005 to 1310 residues) assessed as residual activity at 10 uM using KKSRGDYMTMQIG as substrate measured after 40 mins in presence of [gamma33P]ATP by scintillation counting method
[14] = target: Vascular endothelial growth factor receptor 2 (Homo sapiens) (UniProt P35968); assay: Inhibition of recombinant human KDR (790 to end residues) assessed as residual activity at 10 uM using myelin basic protein substrate measured after 40 mins in presence of [gamma33P]ATP by scintillation counting method
[15] = test system: SW-620; assay: Induction of apoptosis in human SW620 cells assessed as late apoptotic cells at 50 nM measured after 48 hrs by Annexin V-FITC/propidium iodide staining-based flow cytometry (reference value: 1.8%); assay type: functional
[16] = target: Cyclin-dependent kinase 5/CDK5 activator 1 (Homo sapiens) (UniProt Q00535+Q15078); assay: Inhibition of recombinant full-length human CDK5/p25 assessed as residual activity at 10 uM using histone H1 as substrate measured after 40 mins in presence of [gamma33P]ATP by scintillation counting method; assay type: protein-complex assay
[17] = test system: HCT-116; assay: Cell cycle arrest in human HCT116 cells assessed as up regulation of CDK1 expression up to 150 nM after 24 hrs by Western blot analysis; assay type: functional, cell-based
[18] = target: Serine/threonine-protein kinase 35 (Homo sapiens) (UniProt Q8TDR2); assay: Inhibition of recombinant full length human CLIK1 assessed as residual activity at 10 uM using RSRSRSRSRSRSRSR as substrate measured after 40 mins in presence of [gamma33P]ATP by scintillation counting method
Sequence of Serine/threonine-protein kinase 35 (Homo sapiens) (Q8TDR2 whole entry, canonical isoform): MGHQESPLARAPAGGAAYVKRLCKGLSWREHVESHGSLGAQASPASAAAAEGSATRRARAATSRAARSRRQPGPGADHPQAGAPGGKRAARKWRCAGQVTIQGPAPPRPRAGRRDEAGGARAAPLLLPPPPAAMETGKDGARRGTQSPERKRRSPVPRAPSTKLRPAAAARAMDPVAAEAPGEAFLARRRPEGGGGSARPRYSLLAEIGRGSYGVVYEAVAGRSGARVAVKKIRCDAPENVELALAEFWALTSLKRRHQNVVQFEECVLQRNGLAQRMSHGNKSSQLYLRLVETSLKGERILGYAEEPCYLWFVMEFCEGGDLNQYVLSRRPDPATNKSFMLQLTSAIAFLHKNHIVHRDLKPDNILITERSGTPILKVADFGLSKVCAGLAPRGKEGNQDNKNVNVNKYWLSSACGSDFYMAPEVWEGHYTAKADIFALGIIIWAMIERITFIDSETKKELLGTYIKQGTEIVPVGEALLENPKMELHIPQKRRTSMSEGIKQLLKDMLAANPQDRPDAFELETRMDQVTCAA

[19] = target: Casein kinase I isoform gamma-2 (Homo sapiens) (UniProt P78368); assay: Inhibition of recombinant human CK1gamma2 (18 to end residues) assessed as residual activity at 10 uM using KRRRALS(p)VASLPGL as substrate measured after 40 mins in presence of [gamma33P]ATP by scintillation counting method
Sequence of Casein kinase I isoform gamma-2 (Homo sapiens) (P78368 whole entry, looked up, canonical isoform): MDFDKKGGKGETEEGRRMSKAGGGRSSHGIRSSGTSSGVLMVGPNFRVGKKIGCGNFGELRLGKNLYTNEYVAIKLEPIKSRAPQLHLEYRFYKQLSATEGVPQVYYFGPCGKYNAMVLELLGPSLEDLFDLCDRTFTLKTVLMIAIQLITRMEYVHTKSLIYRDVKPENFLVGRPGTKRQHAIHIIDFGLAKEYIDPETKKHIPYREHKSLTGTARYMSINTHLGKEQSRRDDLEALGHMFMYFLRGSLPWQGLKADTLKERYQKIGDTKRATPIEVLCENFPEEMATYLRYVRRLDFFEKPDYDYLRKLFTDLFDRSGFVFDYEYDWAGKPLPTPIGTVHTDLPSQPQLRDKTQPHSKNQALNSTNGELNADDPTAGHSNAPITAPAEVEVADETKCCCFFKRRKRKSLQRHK

[20] = target: Macrophage colony-stimulating factor 1 receptor (Homo sapiens) (UniProt P07333); assay: Inhibition of recombinant human FMS (538 to end residues) assessed as residual activity at 10 uM using KKKSPGEYVNIEFG as substrate measured after 40 mins in presence of [gamma33P]ATP by scintillation counting method
Sequence of Macrophage colony-stimulating factor 1 receptor (Homo sapiens) (P07333 whole entry): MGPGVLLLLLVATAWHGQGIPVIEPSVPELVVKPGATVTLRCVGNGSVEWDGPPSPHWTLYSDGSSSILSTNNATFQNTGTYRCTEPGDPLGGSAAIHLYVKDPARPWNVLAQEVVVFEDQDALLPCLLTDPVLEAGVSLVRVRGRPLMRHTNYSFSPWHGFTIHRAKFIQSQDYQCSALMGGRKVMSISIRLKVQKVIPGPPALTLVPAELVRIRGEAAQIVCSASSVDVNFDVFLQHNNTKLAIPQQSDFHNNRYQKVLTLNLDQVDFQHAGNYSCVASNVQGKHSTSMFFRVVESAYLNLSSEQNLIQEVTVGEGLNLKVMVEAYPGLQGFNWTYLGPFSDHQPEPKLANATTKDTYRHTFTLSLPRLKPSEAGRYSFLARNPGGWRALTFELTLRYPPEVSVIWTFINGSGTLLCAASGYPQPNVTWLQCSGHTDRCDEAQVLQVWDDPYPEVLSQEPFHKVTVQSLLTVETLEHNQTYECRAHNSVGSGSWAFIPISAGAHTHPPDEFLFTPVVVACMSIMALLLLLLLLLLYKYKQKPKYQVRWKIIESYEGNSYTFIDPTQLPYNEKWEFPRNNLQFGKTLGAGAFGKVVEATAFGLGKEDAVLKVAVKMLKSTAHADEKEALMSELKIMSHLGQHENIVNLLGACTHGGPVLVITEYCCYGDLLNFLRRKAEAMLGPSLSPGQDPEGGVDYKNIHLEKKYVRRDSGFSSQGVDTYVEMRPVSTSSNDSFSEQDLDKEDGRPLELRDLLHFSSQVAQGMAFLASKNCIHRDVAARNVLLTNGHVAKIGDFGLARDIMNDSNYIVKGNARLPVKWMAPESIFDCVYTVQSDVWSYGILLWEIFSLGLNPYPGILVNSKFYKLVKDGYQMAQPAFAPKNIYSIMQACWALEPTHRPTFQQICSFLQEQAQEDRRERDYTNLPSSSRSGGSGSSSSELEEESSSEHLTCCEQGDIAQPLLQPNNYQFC

[21] = test system: Dual specificity protein kinase TTK (Homo sapiens), P33981 [S389A]; assay: Inhibition of recombinant full-length human TTK S389A mutant assessed as residual activity at 10 uM using MBP as substrate measured after 40 mins in presence of [gamma33P]ATP by scintillation counting method
[22] = target: STE20-like serine/threonine-protein kinase (Homo sapiens) (UniProt Q9H2G2); assay: Inhibition of human SLK (1 to 373 residues) using RLGRDKYKTLRQIRQ as substrate measured after 40 mins in presence of [gamma33P]ATP by scintillation counting method; parameters: scale not given: the % may be the effect or the level left
Sequence of STE20-like serine/threonine-protein kinase (Homo sapiens) (Q9H2G2 whole entry, looked up, the tested form may be a part): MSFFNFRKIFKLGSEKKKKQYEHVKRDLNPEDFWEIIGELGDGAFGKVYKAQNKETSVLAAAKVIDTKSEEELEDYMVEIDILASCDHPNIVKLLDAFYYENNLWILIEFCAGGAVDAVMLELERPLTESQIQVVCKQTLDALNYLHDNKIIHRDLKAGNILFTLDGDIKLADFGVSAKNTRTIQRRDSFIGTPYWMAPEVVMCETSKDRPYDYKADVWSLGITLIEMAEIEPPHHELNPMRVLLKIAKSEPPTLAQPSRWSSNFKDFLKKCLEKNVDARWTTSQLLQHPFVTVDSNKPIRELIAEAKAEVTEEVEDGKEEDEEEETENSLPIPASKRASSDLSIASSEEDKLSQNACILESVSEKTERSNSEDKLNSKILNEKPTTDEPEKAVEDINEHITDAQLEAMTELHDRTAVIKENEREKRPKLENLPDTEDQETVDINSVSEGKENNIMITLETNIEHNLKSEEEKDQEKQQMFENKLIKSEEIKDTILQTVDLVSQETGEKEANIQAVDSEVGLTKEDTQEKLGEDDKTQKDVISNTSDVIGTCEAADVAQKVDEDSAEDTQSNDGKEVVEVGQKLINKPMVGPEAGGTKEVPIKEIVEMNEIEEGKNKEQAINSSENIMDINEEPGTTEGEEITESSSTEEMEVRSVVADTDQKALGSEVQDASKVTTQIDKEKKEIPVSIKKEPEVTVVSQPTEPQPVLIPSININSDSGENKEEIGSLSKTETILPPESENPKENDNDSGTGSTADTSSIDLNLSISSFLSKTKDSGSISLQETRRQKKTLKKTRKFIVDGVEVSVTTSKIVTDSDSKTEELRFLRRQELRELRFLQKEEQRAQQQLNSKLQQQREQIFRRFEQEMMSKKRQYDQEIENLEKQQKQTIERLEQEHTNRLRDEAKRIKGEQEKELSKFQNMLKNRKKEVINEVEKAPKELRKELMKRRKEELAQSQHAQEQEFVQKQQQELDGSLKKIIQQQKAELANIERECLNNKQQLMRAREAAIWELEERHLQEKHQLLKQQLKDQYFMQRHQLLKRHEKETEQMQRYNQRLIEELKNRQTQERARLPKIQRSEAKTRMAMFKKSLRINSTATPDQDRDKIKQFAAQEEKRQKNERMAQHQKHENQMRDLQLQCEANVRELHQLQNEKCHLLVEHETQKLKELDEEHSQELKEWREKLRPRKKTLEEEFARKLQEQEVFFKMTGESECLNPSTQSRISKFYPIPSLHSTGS

[23] = Toxicity in nude BALB/c mouse xenografted with human HCT116 cells assessed as change in body weight at 40 mg/kg, po administered once daily for 4 weeks measured every 3 days during compound dosing; assay type: organism-based; settings: in vivo
[24] = Toxicity in Balb/c mouse spleen at 80 mg/kg after 4 weeks by hematoxylin and eosin staining-based assay; assay type: organism-based; settings: in vivo, 672 h
[25] = target: Ribosomal protein S6 kinase alpha-5 (Homo sapiens) (UniProt O75582); assay: Inhibition of recombinant human MSK1 (2 to end residues) assessed as residual activity at 10 uM using GRPRTSSFAEGKK as substrate measured after 40 mins in presence of [gamma33P]ATP by scintillation counting method

**Q.** What does the source list for `Cc1cc(C)c(CNc2nc(Cl)nc3c2ncn3C2CCCC2)c(=O)[nH]1`?
**A.** Activity [1]: Non-Toxic; Activity [2]: 110%; IC50 [3]: 98 nM; Activity [4]: 100%; Activity [5]: 99%; Activity [6]: 104%; Activity [7]: 120%; Activity [8]: Active; Activity [9]: 100%; Activity [10]: 96%; inhibition in vivo at 40 mg/kg [11]: 39.9%; Activity [12]: 108%; Activity [13]: 116%; Activity [14]: 107%; Activity [15]: 9.24%; Activity [16]: 94%; Activity [17]: Active; Activity [18]: 65.5%; Activity [19]: 104%; Activity [20]: 102%; Activity [21]: 99.5%; Activity [22]: 95.5%; Activity [23]: Non-Toxic; Activity [24]: Non-Toxic; Activity [25]: 112%
